Measured values reported in US20240009150A1, “CAPSAICYNS IN THE TREATMENT OF LEAKY GUT” (AXICHEM AB [SE]/[SE], priority 2020, published 2024).
Entries after “also recorded” stand apart in the source; their conditions may differ. Where two headings read alike, the source gives them in different places. Marks after values point to notes of the source that are not given here.

Key:
Type in all cases: cell-based
[1] = tested on: Chromobacterium violaceum CV026; assay: Quorum sensing inhibition, disc-diffusion assay with Chromobacterium violaceum CV026 (QS and antibacterial zones); details: for QS (zone of quorum sensing inhibition): disc diffusion, zone past the disk; for zone of inhibition at 7.81 µg/mL / zone of inhibition at 15.63 µg/mL / zone of inhibition at 31.13 µg/mL / zone of inhibition at 62.5 µg/mL / zone of inhibition at 125 µg/mL / zone of inhibition at 250 µg/mL / zone of inhibition at 500 µg/mL: Chromobacterium violaceum
Procedure: Chromobacterium violaceum CV026 is a violacein negative, double mini-Tn5 mutant from C. violaceum (ATCC 31532) that was used to identify quorum sensing inhibition.
(§1) A stock solution of 1000 ug of compound V and capsaicin was prepared by dissolving 1000 μg in 100 μl of ethanol and 900 μl of sterile water. The stock solutions were sequentially diluted with double volumes of solvent (10% aqueous ethanol solution) to yield 500/250/125/62.5/31.25/15.625/7.81 μg/ml test solutions.
Chromobacterium violaceum CV026 was used to determine the anti-quorum sensing activity. Inducer N-hexanoyl homoserine lactone (C6-HSL) was purchased from Sigma-Aldrich. CV026 was cultivated in Luria-Bertani (LB) medium (LB, 5 g yeast extract, 10 g tryptone, 5 g NaCl, 1 L water) at 30° C. overnight under aerobic conditions. A standard disc-diffusion assay was used to detect anti-quorum sensing activity of V and capsaicin by making use of double layer culture plates. 15 ml LB medium (2.5% agar) was overlaid with 15 ml LB (1.0% agar) containing 50 μl C. violaceum CV026 with 20 μg/ml-1 kanamycin and 50 ng/ml C6-AHL. Test concentrations of V and capsaicin were added onto sterile disks (8 mm diameter) and placed on the agar. The plates were then incubated overnight at 30° C. and quorum sensing inhibition was detected as a less colored/colourless zone around the disk, where viable cells, indicative of growth but quorum sensing inhibition, were present. Measurements were made from the outer edge of the discs to the edge of the zones of anti-quorum sensing inhibition. The formulation solvent (10% aqueous ethanol) was used as the negative control.
The biosensor strain, C. violaceum CV026, is a mutant of the wild type strain and is unable to produce its own AHL signal. It only responds to exogenous active signal molecules and produces a purple color, violacein. Loss of this purple color around the disk when incubated with exogenous AHL is thus indicative of QS inhibition by the test compounds. More specifically, the zone (mm past the disk) of QS inhibition results in an opaque disc with no purple color but bacterial growth. […] The results are shown below in Table 1, wherein QS denotes quorum sensing.

[2] = tested on: Salmonella enterica subsp. enterica serovar Paratyphi C (ATCC® BAA 1714™); assay: Inhibition of biofilm formation, crystal violet staining assay (Example 5); details: for Biofilm (OD 595 nm): 24 hr; for Biofilm (OD 595 nm) / biofilm formed (CVSA), in words: 30° C.; for biofilm formed (CVSA), in words: 32 and 8 μg/ml
Procedure: (§2) Biofilm formation was quantified with modifications using the method described by Stepanovic et al. (Journal of Microbiological Methods, 2000, 40(2), 175-19) with modifications. Using a 96-well microplate duplicate the test solutions were filled at the above selected doses. Cultures were grown for 18 hr in LB at 30° C. and adjusted to OD 0.1 at 600 nm. 20 μL of the culture were added into each well and the remainder of the volume to 200 μL per well was filled with LB. Unused external wells were filled with 200 μL of sterile water to prevent evaporation.
(§3) After 24 hr of incubation, supernatants were discarded, and the wells were washed three times with 200 μL of sterile phosphate buffered saline (PBS). Bacteria adhered to the wells were fixed with 200 μL of methanol for 15 min, the methanol was discarded, and the plates dried at 25° C.
(§4) Each well was stained with 200 μL of 0.3% (w/v) crystal violet solution for 5 min at 25° C. Crystal violet excess was pipetted out, and the wells were rinsed five times with sterile PBS. 200 μL of 33% (v/v) glacial acetic acid were added to the wells for 30 min to solubilise the dye adhered to the cell walls. Optical density (OD) was measured at 595 nm using a microplate spectrophotometer as a direct measure of biofilm formation. P. aeruginosa in 3% DMSO will be used as the negative control.
as §1, with “μg” for “ug”, “phenylcapsaicin” for “compound V”, “double and then quadruple” for “double”, “500/125/31.25 (32)/7.81 (8)” for “500/250/125/62.5/31.25/15.625/7.81”
(§5) ATCC® BAA 1714™ was used to determine the biofilm inhibition activity. Inducer N-hexanoyl homoserine lactone (C6-HSL) was purchased from Sigma-Aldrich. ATCC® BAA 1714™ was cultivated in Luria-Bertani (LB) medium (LB, 5 g yeast extract, 10 g tryptone, 5 g NaCl, 1 L water) at 37° C. overnight under aerobic conditions.
Crystal violet staining assay was performed as in Experiment 3, using ATCC® BAA 1714™ in 3% DMSO as the control.

[3] = tested on: Salmonella enterica subsp. enterica serovar Paratyphi C (ATCC® BAA1714™); assay: Inhibition of biofilm formation with different capsaicyn compounds, crystal violet staining assay (Example 6); details: for Biofilm (OD 595 nm): 24 hr; for interference with the biofilm readings, in words: 125 μg/ml dose
Procedure: as §2, §3, §4
A stock solution of 500 μg of phenylcapsaicin, capsaicin, compound a, compound b, compound c, was prepared by dissolving 500 μg in 100 μl of ethanol and 900 μl of sterile water. The stock solutions were sequentially diluted with quadruple volumes of solvent (10% aqueous ethanol solution) to yield 125/31.25 (32)/7.81 (8)/1.95 (2) μg/ml test solutions.
as §5, with “BAA1714™” for “BAA 1714™”
Crystal violet staining assay was performed as in Experiment 3, using ATCC® BAA1714™ in 3% DMSO as the control.

[4] = CV026, read-out: Antibacterial (zone of growth inhibition)
[5] = CV026, read-out: QS (zone of quorum sensing inhibition)

| Compound | QS (zone of quorum sensing inhibition) ([1]; 125 μg/mL) | QS (zone of quorum sensing inhibition) ([1]; 250 μg/mL) | QS (zone of quorum sensing inhibition) ([1]; 500 μg/mL) | zone of inhibition at 7.81 µg/mL [1, 4] [mm] | zone of inhibition at 15.63 µg/mL [1, 4] [mm] | zone of inhibition at 31.13 µg/mL [1, 4] [mm] | zone of inhibition at 62.5 µg/mL [1, 4] [mm] | zone of inhibition at 125 µg/mL [1, 4] [mm] | zone of inhibition at 250 µg/mL [1, 4] [mm] | zone of inhibition at 500 µg/mL [1, 4] [mm] | zone of inhibition at 7.81 µg/mL [1, 5] [mm] | zone of inhibition at 15.63 µg/mL [1, 5] [mm] | zone of inhibition at 31.13 µg/mL [1, 5] [mm] | Biofilm (OD 595 nm) ([2]; 7.81 μg/mL) | Biofilm (OD 595 nm) ([2]; 31.125 μg/mL) | biofilm formed (CVSA), in words [2] | Biofilm (OD 595 nm) ([3]; 2 μg/mL, 30° C.) | Biofilm (OD 595 nm) ([3]; 8 μg/mL, 30° C.) | Biofilm (OD 595 nm) ([3]; 32 μg/mL, 30° C.) | interference with the biofilm readings, in words [3] | also measured |
| --- | --- | --- | --- | --- | --- | --- | --- | --- | --- | --- | --- | --- | --- | --- | --- | --- | --- | --- | --- | --- | --- |
| COc1cc(CNC(=O)CCCCC#Cc2ccccc2)ccc1O [Phenylcapsaicin, N-[(4-hydroxy-3-methoxyphenyl)methyl]-7-phenylhept-6-ynamide] | NO | NO | NO | 0 | 0 | 0 | 3 | 5 | 9 | 10 | 3 | 9 | 11 | 2.9^b OD 595 nm | 3.2^b OD 595 nm | significantly reduced; also recorded: good inhibitor of biofilm formation | 2.5 | 2.8 | 3.4 | antibacterial interference | quorum sensing inhibiting activity (in words) ([1]; 61.5/31.25/15.625/7.81 μg/ml doses): strong to weak; zone of inhibition at 62.5 µg/mL [1, 5]: 7 mm; antibacterial activity (in words) ([1]; higher doses (500/250/125 μg/ml)): antibacterial activity; biofilm formed (CVSA), in words ([3]; 32, 8 and 2 μg/ml, 30° C.): significantly reduced; also recorded: good inhibitor of biofilm formation |
| COc1cc(CNC(=O)CCCC/C=C/C(C)C)ccc1O [Capsaicin, (E)-N-(4-hydroxy-3-methoxybenzyl)-8-methylnon-6-enamide, reference compound] | NO | NO | NO | 0 | 0 | 0 | 8 | 9 | 14 | 11 | 0 | 0 | 0 | 8.5^a OD 595 nm | 8.1^a OD 595 nm | did not show any reduction of biofilm formation | 8.2 | 8.6 | 8.2 | antibacterial interference | QS (zone of quorum sensing inhibition) ([1]; 62.5 μg/mL): NO; quorum sensing inhibiting activity (in words) ([1]; non antibacterial doses (31.25/15.625/7.81 μg/ml)): did not exhibit quorum sensing inhibiting activity; biofilm formation inhibition, conclusion in words ([2]; any dose tested): did not exhibit any biofilm formation inhibition; biofilm formation inhibition activity, in words ([3]; any dose tested (125, 32, 8, 2 μg/ml)): did not show reduction biofilm formation |
